According to patent US20240124418A1 (BioTheryX, Inc., priority 2020, published 2024):

System: TNF-α
Test: Cell-based TNF-α inhibition assay (LPS-induced PBMCs, Meso Scale)
Settings: PBMC, PBMCs pretreated 1 h, LPS 100 ng/mL 18-24 h, percentage of stimulated DMSO control; for inhibition at 0.1 µM: compound concentration 0.1 μM; for inhibition at 1 µM: compound concentration 1 μM
Protocol: Example B1. Cell-Based TNF-α Inhibition Assay
Frozen primary blood mononuclear cells (PBMCs) were quick thawed, washed once with RPMI 1640 media supplemented with 10% fetal bovine serum, 1% penicillin, and 1% streptomycin, and plated in a 96 well plate at 200,000 cells per well. The cells were pretreated with DMSO only as a control or a compound for 1 h, and then induced with LPS (lipopolysaccharide) (100 ng/mL) for 18-24 h. The supernatant was analyzed for TNF-α using the Meso Scale assay. Compound activity was determined as a percentage of the stimulated DMSO control. The results are summarized in Table 1, where A represents a percent inhibition value ≥60%; B represents a percent inhibition value <60% and ≥40%; C represents a percent inhibition value <40% and ≥20%; and D represents a single percent inhibition value <20%.

SMILES | inhibition at 0.1 µM [%] | inhibition at 1 µM [%]
CCOc1cc([C@@H](CS(C)(=O)=O)N2C(=O)c3cccc(NC(=O)CCCCCCCN4CCN(CC(=O)Nc5ccc(C6CCC(=O)NC6=O)cc5)CC4)c3C2=O)ccc1OC (stereo partly drawn) [Compound A84, 8-[4-({[4-(2,6-Dioxopiperidin-3-yl)phenyl]carbamoyl}methyl)piperazin-1-yl]-N-{2-[(1S)-1-(3-ethoxy-4-methoxyphenyl)-2-methanesulfonylethyl]-1,3-dioxo-2,3-dihydro-1H-isoindol-4-yl}octanamide] | ≥ 60 | ≥ 60
Cc1ncsc1-c1ccc(CNC(=O)[C@@H]2C[C@@H](O)CN2C(=O)[C@@H](NC(=O)CCCCCCCCOc2cc(C(=O)Nc3c(Cl)cncc3Cl)ccc2OCC2CC2)C(C)(C)C)cc1 [Compound B22, (2S,4R)-1-((S)-2-(9-(2-(Cyclopropylmethoxy)-5-((3,5-dichloropyridin-4-yl)carbamoyl)phenoxy)nonanamido)-3,3-dimethylbutanoyl)-4-hydroxy-N-(4-(4-methylthiazol-5-yl)benzyl)pyrrolidine-2-carboxamide] | < 20 | 20 to 40
CCOc1cc([C@@H](CS(C)(=O)=O)N2C(=O)c3c(N)ccc(CCCCCCCCCCCCN4CCC(c5cc(F)cc6c5CN(C5CCC(=O)NC5=O)C6=O)CC4)c3C2=O)ccc1OC (stereo partly drawn) [Compound A18, 4-Amino-7-(12-{4-[2-(2,6-Dioxopiperidin-3-yl)-6-fluoro-1-oxo-2,3-dihydro-1H-isoindol-4-yl]piperidin-1-yl}dodecyl)-2-[(1S)-1-(3-ethoxy-4-methoxyphenyl)-2-methanesulfonylethyl]-2,3-dihydro-1H-isoindole-1,3-dione] | ≥ 60 | ≥ 60
CCOc1cc([C@@H](CS(C)(=O)=O)N2C(=O)c3cccc(NC(=O)CCCCCCCCCN4CCN(CC(=O)Nc5ccc(C6CCC(=O)NC6=O)cc5)CC4)c3C2=O)ccc1OC (stereo partly drawn) [Compound A86, 10-[4-({[4-(2,6-Dioxopiperidin-3-yl)phenyl]carbamoyl}methyl)piperazin-1-yl]-N-{2-[(1S)-1-(3-ethoxy-4-methoxyphenyl)-2-methanesulfonylethyl]-1,3-dioxo-2,3-dihydro-1H-isoindol-4-yl}decanamide] | ≥ 60 | ≥ 60
CCOc1cc([C@@H](CS(C)(=O)=O)N2C(=O)c3cc(CCCCCCCCCCCCNc4cccc(NC5CCC(=O)NC5=O)c4)cc(N)c3C2=O)ccc1OC (stereo partly drawn) [Compound A90, 4-Amino-6-[12-({3-[(2,6-dioxopiperidin-3-yl)amino]phenyl}amino)dodecyl]-2-[(1S)-1-(3-ethoxy-4-methoxyphenyl)-2-methanesulfonylethyl]-2,3-dihydro-1H-isoindole-1,3-dione] | ≥ 60 | ≥ 60
CCOc1cc([C@@H](CS(C)(=O)=O)N2C(=O)c3cccc(NC(=O)CCCCCCCCNCc4ccc(COc5cccc6c5CN(C5CCC(=O)NC5=O)C6=O)cc4)c3C2=O)ccc1OC (stereo partly drawn) [Compound A16, 9-({[4-({[2-(2,6-Dioxopiperidin-3-yl)-1-oxo-2,3-dihydro-1H-isoindol-4-yl]oxy}-methyl)phenyl]methyl}amino)-N-{2-[(1S)-1-(3-ethoxy-4-methoxyphenyl)-2-methanesulfonylethyl]-1,3-dioxo-2,3-dihydro-1H-isoindol-4-yl}nonanamide] | ≥ 60 | ≥ 60
CCOc1cc([C@@H](CS(C)(=O)=O)N2C(=O)c3c(CCCCCCCCCCCCN4CCC(c5cc(F)cc6c5CN(C5CCC(=O)NC5=O)C6=O)CC4)ccc(NC(C)=O)c3C2=O)ccc1OC (stereo partly drawn) [Compound A17, N-[7-(12-{4-[2-(2,6-Dioxopiperidin-3-yl)-6-fluoro-1-oxo-2,3-dihydro-1H-isoindol-4-yl]piperidin-1-yl}dodecyl)-2-[(1S)-1-(3-ethoxy-4-methoxyphenyl)-2-methanesulfonylethyl]-1,3-dioxo-2,3-dihydro-1H-isoindol-4-yl]acetamide] | ≥ 60 | ≥ 60
CCOc1cc([C@@H](CS(C)(=O)=O)N2C(=O)c3cccc(NC(=O)CCCCCN4CCC(N5CCC(c6cc7c(cc6F)C(=O)N(C6CCC(=O)NC6=O)C7)CC5)CC4)c3C2=O)ccc1OC (stereo partly drawn) [Compound A29, 6-{4-[2-(2,6-Dioxopiperidin-3-yl)-6-fluoro-1-oxo-2,3-dihydro-1H-isoindol-5-yl]-[1,4′-bipiperidin]-1′-yl}-N-{2-[(1S)-1-(3-ethoxy-4-methoxyphenyl)-2-methanesulfonylethyl]-1,3-dioxo-2,3-dihydro-1H-isoindol-4-yl}hexanamide] | 40 to 60 | ≥ 60
CCOc1cc([C@@H](CS(C)(=O)=O)N2C(=O)c3cccc(NC(=O)CCCCCCCN4CCN(CC(=O)Nc5cccc(C6CCC(=O)NC6=O)c5)CC4)c3C2=O)ccc1OC (stereo partly drawn) [Compound A85, 8-[4-({[3-(2,6-Dioxopiperidin-3-yl)phenyl]carbamoyl}methyl)piperazin-1-yl]-N-{2-[(1S)-1-(3-ethoxy-4-methoxyphenyl)-2-methanesulfonylethyl]-1,3-dioxo-2,3-dihydro-1H-isoindol-4-yl}octanamide] | ≥ 60 | ≥ 60
CCOc1cc([C@@H](CS(C)(=O)=O)N2C(=O)c3cccc(NC(=O)CCCCCCCCCCC(=O)N[C@H](C(=O)N4C[C@H](O)C[C@H]4C(=O)NCc4ccc(-c5scnc5C)cc4)C(C)(C)C)c3C2=O)ccc1OC [Compound A64, N-{2-[(1S)-1-(3-Ethoxy-4-methoxyphenyl)-2-methanesulfonylethyl]-1,3-dioxo-2,3-dihydro-1H-isoindol-4-yl}-N′-[(2S)-1-[(2S,4R)-4-hydroxy-2-({[4-(4-methyl-1,3-thiazol-5-yl)phenyl]methyl}carbamoyl)pyrrolidin-1-yl]-3,3-dimethyl-1-oxobutan-2-yl]dodecanediamide] | ≥ 60 | ≥ 60
CCOc1cc([C@@H](CS(C)(=O)=O)N2C(=O)c3cccc(NC(=O)CCCCCCC4CN(Cc5ccc(OCc6scc7c6CN(C6CCC(=O)NC6=O)C7=O)cc5)CCO4)c3C2=O)ccc1OC (stereo partly drawn) [Compound A47] | ≥ 60 | ≥ 60
CCOc1cc([C@@H](CS(C)(=O)=O)N2C(=O)c3cccc(NC(=O)CCCCCN4CCN(CC(=O)Nc5ccc6c(C7CCC(=O)NC7=O)nn(C)c6c5)CC4)c3C2=O)ccc1OC (stereo partly drawn) [Compound A78, 6-[4-({[3-(2,6-Dioxopiperidin-3-yl)-1-methyl-1H-indazol-6-yl]carbamoyl}-methyl)piperazin-1-yl]-N-{2-[(1S)-1-(3-ethoxy-4-methoxyphenyl)-2-methanesulfonylethyl]-1,3-dioxo-2,3-dihydro-1H-isoindol-4-yl}hexanamide] | ≥ 60 | ≥ 60
CCOc1cc([C@@H](CS(C)(=O)=O)N2C(=O)c3cccc(NC(=O)CCCCCCCCCCN(C)Cc4ccc(OCc5scc6c5CN(C5CCC(=O)NC5=O)C6=O)cc4)c3C2=O)ccc1OC (stereo partly drawn) [Compound A46, 11-{[(4-{[5-(2,6-Dioxopiperidin-3-yl)-4-oxo-4H,5H,6H-thieno[3,4-c]pyrrol-1-yl]methoxy}phenyl)methyl](methyl)amino}-N-{2-[(1S)-1-(3-ethoxy-4-methoxyphenyl)-2-methanesulfonylethyl]-1,3-dioxo-2,3-dihydro-1H-isoindol-4-yl}undecanamide] | ≥ 60 | ≥ 60
CCOc1cc([C@@H](CS(C)(=O)=O)N2C(=O)c3cccc(NC(=O)CCCN4CCN(CCNCc5ccc(OCc6scc7c6CN(C6CCC(=O)NC6=O)C7=O)cc5)CC4)c3C2=O)ccc1OC (stereo partly drawn) [Compound A45, 4-[4-(2-{[(4-{[5-(2,6-Dioxopiperidin-3-yl)-4-oxo-4H,5H,6H-thieno[3,4-c]pyrrol-1-yl]methoxy}phenyl)methyl]amino}ethyl)piperazin-1-yl]-N-{2-[(1S)-1-(3-ethoxy-4-methoxy-phenyl)-2-methanesulfonylethyl]-1,3-dioxo-2,3-dihydro-1H-isoindol-4-yl}butanamide] | ≥ 60 | ≥ 60
O=C1CCC(N2Cc3c(cc(F)cc3C3CCN(CCCCCCCCCOc4cc(C(=O)Nc5c(Cl)cncc5Cl)ccc4OC(F)F)CC3)C2=O)C(=O)N1 (stereo not drawn) [Compound B4, N-(3,5-Dichloropyridin-4-yl)-4-(difluoromethoxy)-3-((9-(4-(2-(2,6-dioxo-piperidin-3-yl)-6-fluoro-1-oxoisoindolin-4-yl)piperidin-1-yl)nonyl)oxy)benzamide] | ≥ 60 | –
CCOc1cc([C@@H](CS(C)(=O)=O)N2C(=O)c3cccc(NC(=O)CCCCCCOc4cc(-c5scnc5C)ccc4CNC(=O)[C@@H]4C[C@@H](O)CN4C(=O)[C@@H](NC(C)=O)C(C)(C)C)c3C2=O)ccc1OC [Compound A76, (2S,4R)-1-[(2S)-2-Acetamido-3,3-dimethylbutanoyl]-N-[(2-{[6-({2-[(1S)-1-(3-ethoxy-4-methoxyphenyl)-2-methanesulfonylethyl]-1,3-dioxo-2,3-dihydro-1H-isoindol-4-yl}-carbamoyl)hexyl]oxy}-4-(4-methyl-1,3-thiazol-5-yl)phenyl)methyl]-4-hydroxypyrrolidine-2-carboxamide] | 40 to 60 | ≥ 60
CCOc1cc([C@@H](CS(C)(=O)=O)N2C(=O)c3cccc(NC(=O)CN4CCN(CCCCN5CCC(c6cc7c(cc6F)C(=O)N(C6CCC(=O)NC6=O)C7)CC5)CC4)c3C2=O)ccc1OC (stereo partly drawn) [Compound A28, 2-[4-(4-{4-[2-(2,6-Dioxopiperidin-3-yl)-6-fluoro-1-oxo-2,3-dihydro-1H-isoindol-5-yl]piperidin-1-yl}butyl)piperazin-1-yl]-N-{2-[(1S)-1-(3-ethoxy-4-methoxyphenyl)-2-methanesulfonylethyl]-1,3-dioxo-2,3-dihydro-1H-isoindol-4-yl}acetamide] | 40 to 60 | ≥ 60
